Values joined by “and” are separate entries in the source; they are usually repeats but may differ in a detail not shown here. Equal values may be shown once.
Experiments:
[1] = 7-day repeated-dose TK in dogs; assay type: in vivo; conditions: beagle, dog, plasma, po
Description: The TK of ZB716 was investigated following once-daily administration via oral gavage for 7 consecutive days. Beagle dogs (n = 1/sex) were orally administered ZB716 at dose levels of 100 and 200 mg/kg/day.
The TK of ZB716 was investigated following once-daily administration via oral gavage for 7 consecutive days. The Cmax and AUClast values of ZB716 increased with dose in a greater than dose-proportional manner. However, the exposure in the female given 100 mg/kg/day was higher than that in the female given 200 mg/kg/day on days 1 and 7 (Figure 3). During the study, females had higher exposure at 100 mg/kg/day, and males had higher exposure at 200 mg/kg/day.
(§1) Four-to-six-week-old Sprague Dawley rats (Crl: CD (SD)) (SPF/VAF) were purchased from Beijing Vital River Laboratory Animal Technology, Co. Ltd.). Six-month-old beagle dogs were purchased from Beijing Marshall Biotechnology Co. Ltd. Animals were quarantined/acclimated for 2–6 weeks prior to dose initiation. Both Sprague Dawley rats and beagle dogs were given oral administration of ZB716 (20% PG, 5% Solutol, and 75% of 40% HP-β-CD in water) at different dose levels. After treatment with the test articles, whole blood was collected from each study animal by puncture of the tail vein (0.4 mL of whole blood from rats) and/or the peripheral vein (0.6 mL of whole blood from dogs) into tubes containing K2EDTA at each timepoint: pre-dose, and 0.5, 1, 2, 4, 8, and 24 h post-dose. The plasma samples were divided into 2 aliquots (approximately equal in volume) and stored frozen at −75 ± 15 °C within 2 h of the collection until analysis at Pharmaron, China.
(§2) The stock solution of ZB716 (5.0 mg/mL) and ZB716-d6 (1 mg/mL) in ACN:DI Water = 1:1 was prepared and stored at −20 ± 5 °C. The desired serial concentrations of working reference analyte solutions were achieved by diluting a stock analyte solution with 50% acetonitrile (0.1% formic acid) in water solution. The bioanalytical LC–MS/MS method was validated for quantitative determination of ZB716 in Sprague Dawley rat plasma and beagle dog plasma, with acceptable selectivity, sensitivity, calibration curve, precision, and accuracy. This method is applicable for the determination of ZB716 in Sprague Dawley rat plasma and beagle dog plasma, with a lower limit of quantification of 20.0 ng/mL, and an upper limit of quantification of 10,000 ng/mL.
(§3) Five microliters of diluted supernatant was injected into the LC–MS/MS system (Shimadzu LC30AD HPLC system with a SynergiTM 4 μm Fusion-RP 80 Å (50 × 2 mm) column using gradient elution and a Triple Quad 5500 mass spectrometer) for quantitative analysis. The mobile phases used were 0.1% formic acid in deionized water and 0.1% formic acid in acetonitrile. The pharmacokinetic parameters T1/2 (the biological half-life), Cmax (maximal concentration), Tmax (time at which Cmax is observed), and AUC (area under the plasma concentration–time curve) were calculated from the plasma concentration versus time data using WinNonlin (Phoenix^TM, version 8.1, Mountain View, CA, USA). All PK studies were conducted by Pharmaron in Beijing, China.

CYP2C9 = CYP2C9 (Homo sapiens, UniProt P11712); assay: CYP inhibition in human liver microsomes, CYP2C9; assay type: in vitro ADME; conditions: HLM, marker substrate Diclofenac
Sequence of CYP2C9 (P11712 whole entry): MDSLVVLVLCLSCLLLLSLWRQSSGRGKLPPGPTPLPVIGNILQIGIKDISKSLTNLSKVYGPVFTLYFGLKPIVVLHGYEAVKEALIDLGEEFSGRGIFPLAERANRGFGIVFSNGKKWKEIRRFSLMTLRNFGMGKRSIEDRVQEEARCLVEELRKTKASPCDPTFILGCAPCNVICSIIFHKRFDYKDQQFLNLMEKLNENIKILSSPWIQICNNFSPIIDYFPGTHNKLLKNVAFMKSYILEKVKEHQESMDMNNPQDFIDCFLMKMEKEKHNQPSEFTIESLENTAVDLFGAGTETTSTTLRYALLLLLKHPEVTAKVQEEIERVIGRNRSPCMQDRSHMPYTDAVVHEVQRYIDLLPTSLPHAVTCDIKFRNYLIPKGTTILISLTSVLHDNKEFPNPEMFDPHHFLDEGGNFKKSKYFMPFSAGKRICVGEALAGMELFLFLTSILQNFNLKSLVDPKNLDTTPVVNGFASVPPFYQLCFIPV
Description: . The inhibition of CYP2B6 and 3A4 (when midazolam was used as the substrate) by ZB716 was not observed. The inhibitory potential of ZB716 on human CYP enzyme activities appears relatively low.
The final concentrations of ZB716 in the incubation system were 0, 0.05, 0.15, 0.5, 1.5, 5, and 15 µM (final organic solvent concentration ≤ 1%). […] . […] The concentrations of the isoform-specific metabolites derived from marker substrates were measured by UPLC–MS/MS. The IC50 values were calculated from the percentages of the rate of the metabolite formation relative to non-inhibited controls vs. the concentrations of ZB716 or positive control inhibitors. All incubations were performed in triplicate. The mean of the enzyme activity (% of non-inhibited control) for each concentration was plotted against the log inhibitor concentration, and fitted to an IC50 curve.

CYP2D6 = CYP2D6 (Homo sapiens, UniProt P10635); assay: CYP phenotyping, recombinant CYP2D6
Sequence of CYP2D6 (P10635 whole entry): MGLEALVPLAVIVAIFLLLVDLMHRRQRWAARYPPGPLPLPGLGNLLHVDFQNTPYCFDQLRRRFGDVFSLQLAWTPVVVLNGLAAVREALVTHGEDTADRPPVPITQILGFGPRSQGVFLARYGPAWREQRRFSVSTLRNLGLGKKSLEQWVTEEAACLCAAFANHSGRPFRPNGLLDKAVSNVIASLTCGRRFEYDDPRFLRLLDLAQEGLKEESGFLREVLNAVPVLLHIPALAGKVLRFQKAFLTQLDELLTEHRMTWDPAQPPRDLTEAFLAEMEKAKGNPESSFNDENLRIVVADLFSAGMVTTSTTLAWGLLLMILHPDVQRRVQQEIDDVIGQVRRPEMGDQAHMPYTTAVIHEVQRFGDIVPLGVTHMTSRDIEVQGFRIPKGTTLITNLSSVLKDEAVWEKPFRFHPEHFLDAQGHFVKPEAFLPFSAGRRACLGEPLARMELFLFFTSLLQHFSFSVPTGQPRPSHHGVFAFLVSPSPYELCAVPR
Description: Bactosomes prepared from E. coli that heterologously expressed individual human CYP isoforms together with human CYP reductase were obtained from CYPEX LTD (Scotland, UK), and stored at −80 °C prior to use. […] Timepoints were taken at 0, 5, 10, 15, 20, and 30 min. Substrate disappearance was used to calculate intrinsic clearance (Clint) and half-life (t1/2). All incubations were performed in triplicate. […] The chemical inhibitors for CYP1A2, 2A6, 2B6, 2C8, 2C9, 2C19, 2D6, and 3A4 were furafylline, tranylcypromine, ticlopidine, montelukast, sulfaphenazole, N-3-benzylnirvanol, quinidine, and ketoconazole, respectively. Timepoints were collected at 0, 15, 30, 45, and 60 min, and the remaining percentage of the parent drug at each timepoint was calculated (the calculation details are available in the Supplementary Materials). All incubations were performed in triplicate.
The slope, k, was determined by linear regression of the natural logarithm of percent parent disappearance vs. incubation time curve. Peak areas for test article and internal standard were determined from extracted ion chromatograms. The peak area ratio was used to calculated for the results.
The half-life value (t1/2 rCYPi) was determined from the slope value:
Conversion of the t1/2 rCYPi (in min) into the intrinsic clearance (Clint rCYPi in μL/min/pmol) was done using the following equation:
1.3.2 For inhibition ratio (%) (Liver microsomes with and without inhibitors) The slope value, k, was determined by linear regression of the natural logarithm of the remaining percentage of the parent drug vs. incubation time curve. If the turnover was not significant (T-test with p<0.05 was not obtained) and the percentage remaining at last time point was ≥ 80%, the k value was

[2] = Single-dose PK and bioavailability in dogs; assay type: in vivo; conditions: beagle, dog, plasma; for bioavailability: PO 6 mg/kg/day vs IV 2 mg/kg/day; for AUC(0-t) / Cmax / Tmax: single dose
Description: […] […] All groups had one male and one female animal. Plasma samples were collected at various timepoints, through to 24 h post-dose, and analyzed for ZB716.
as §1, §2, §3

[3] = female, 100 mg/kg/day, day 1, PO 100 mg/kg/day, F
[4] = female, 100 mg/kg/day, day 7, PO 100 mg/kg/day, F
[5] = female, 200 mg/kg/day, day 1, PO 200 mg/kg/day, F
[6] = female, 200 mg/kg/day, day 7, PO 200 mg/kg/day, F
[7] = male, 100 mg/kg/day, day 1, PO 100 mg/kg/day, M
[8] = male, 100 mg/kg/day, day 7, PO 100 mg/kg/day, M
[9] = male, 200 mg/kg/day, day 1, PO 200 mg/kg/day, M
[10] = male, 200 mg/kg/day, day 7, PO 200 mg/kg/day, M

C[C@]12CC[C@@H]3c4ccc(B(O)O)cc4C[C@@H](CCCCCCCCC[S+]([O-])CCCC(F)(F)C(F)(F)F)[C@H]3[C@@H]1CC[C@@H]2O (stereo partly drawn) [ZB716, fulvestrant-3-boronic acid]
Tmax at 7 days ([1]; both sexes, 200 mg/kg/day, 7-day repeat oral administration, 100 and 200 mg/kg/day, mostly): 0.5 to 2 h | AUC(0-t) [1, 3]: 55600 ng·h/mL | Cmax [1, 3]: 7210 ng/mL | Tmax [1, 3]: 2 h | AUC(0-t) [1, 4]: 81100 ng·h/mL | Cmax [1, 4]: 12300 ng/mL | Tmax [1, 4]: 4 h | AUC(0-t) [1, 5]: 9780 ng·h/mL | Cmax [1, 5]: 1740 ng/mL | Tmax [1, 5]: 1 h | AUC(0-t) [1, 6]: 46700 ng·h/mL | Cmax [1, 6]: 8420 ng/mL | Tmax [1, 6]: 2 h | AUC(0-t) [1, 7]: 5070 ng·h/mL | Cmax [1, 7]: 1350 ng/mL | Tmax [1, 7]: 1 h | AUC(0-t) [1, 8]: 17800 ng·h/mL | Cmax [1, 8]: 3430 ng/mL | Tmax [1, 8]: 1 h | AUC(0-t) [1, 9]: 52200 ng·h/mL | Cmax [1, 9]: 8430 ng/mL | Tmax [1, 9]: 2 h | AUC(0-t) [1, 10]: 103000 ng·h/mL | Cmax [1, 10]: 18300 ng/mL | Tmax [1, 10]: 2 h | IC50 (CYP2C9): 4.77 µM | half-life at 2 µM (CYP2D6; human): 0.305 ± 0.055 h | Clint (CYP2D6; recombinant CYP2D6, 2 µM ZB716): 0.773 µL/min/pmol CYP and 0.773 ± 0.142 µL/min/pmol CYP | bioavailability ([2]; female, F): 6.74% | AUC(0-t) ([2]; female, IV 2 mg/kg/day, F): 4310 ng·h/mL | Cmax ([2]; female, IV 2 mg/kg/day, F): 2710 ng/mL | Tmax ([2]; female, IV 2 mg/kg/day, F): 0.0833 h | AUC(0-t) ([2]; female, PO 6 mg/kg/day, F): 872 ng·h/mL | Cmax ([2]; female, PO 6 mg/kg/day, F): 213 ng/mL | Tmax ([2]; female, PO 6 mg/kg/day, F): 0.5 h | AUC(0-t) ([2]; female, PO 30 mg/kg/day, F): 3460 ng·h/mL | Cmax ([2]; female, PO 30 mg/kg/day, F): 964 ng/mL | Tmax ([2]; female, PO 30 mg/kg/day, F): 1 h | AUC(0-t) ([2]; female, PO 100 mg/kg/day, F): 5840 ng·h/mL | Cmax ([2]; female, PO 100 mg/kg/day, F): 957 ng/mL | Tmax ([2]; female, PO 100 mg/kg/day, F): 0.5 h | bioavailability ([2]; male, M): 6.18% | AUC(0-t) ([2]; male, IV 2 mg/kg/day, M): 3030 ng·h/mL | Cmax ([2]; male, IV 2 mg/kg/day, M): 2160 ng/mL | Tmax ([2]; male, IV 2 mg/kg/day, M): 0.0833 h | AUC(0-t) ([2]; male, PO 6 mg/kg/day, M): 563 ng·h/mL | Cmax ([2]; male, PO 6 mg/kg/day, M): 157 ng/mL | Tmax ([2]; male, PO 6 mg/kg/day, M): 0.5 h | AUC(0-t) ([2]; male, PO 30 mg/kg/day, M): 5520 ng·h/mL | Cmax ([2]; male, PO 30 mg/kg/day, M): 988 ng/mL | Tmax ([2]; male, PO 30 mg/kg/day, M): 4 h | AUC(0-t) ([2]; male, PO 100 mg/kg/day, M): 7500 ng·h/mL | Cmax ([2]; male, PO 100 mg/kg/day, M): 1140 ng/mL | Tmax ([2]; male, PO 100 mg/kg/day, M): 2 h

From paper PMC8400955 (Pharmaceuticals, 2021)
